Assay results published in patent US20130217644A1, “Pharmaceutical Compositions of 2'-C-Methyl-Guanosine, 5'-[2[(3-Hydroxy-2,2-Dimethyl-1-Oxopropyl)Thio]Ethyl N-(Phenylmethyl)Phosphoramidate]” (IDENIX PHARMACEUTICALS, INC., priority 2012, published 2013).

Columns and labels:
[1] = Open-label randomized cross-over single-dose pharmacokinetic study, tablet vs liquid filled capsule; assay type: in vivo, human; details: 50 mg single doses (tablet and capsule), healthy male subjects
Experimental: A lot of tablets manufactured under cGMP conditions utilizing the composition of Example 3 (with appropriate adjustment of the weight % of PROSOLV SMCC 90 to account for the potency of Compound 1) were utilized in a pharmacokinetic study. The human clinical study was study performed in conformance with the Declaration of Helsinki and approved by a local Ethics Committee. An open-label randomized cross-over single-dose pharmacokinetic effect study was conducted in 12 healthy male subjects (ages 19-65) to compare the relative exposure of the tablet composition (50 mg compound 1) as compared to the liquid filled capsule composition (50 mg of compound 1) in the fasted state. In addition, an un-randomized third period followed the first two periods in which all 12 subjects were dosed with the tablet composition (50 mg compound 1) in the fed state, and 8 of the 12 subjects returned for a fourth period in which the 8 subjects were dosed with the liquid filled capsule composition (50 mg compound 1) in the fed state. Plasma samples for pharmacokinetic (PK) analysis were taken over a period of 120 h after dosing during each treatment period. Dosing days were at least 6 days apart (Period 1, days 1 to 6; Period 2, days 7 to 13, Period 3, days 14 to 20; and Period 4 followed the initial three periods). […] The pharmacokinetic samples were assayed for 2′-C-methyl-guanosine as well as compound 1.

[2] = Excipient compatibility: ethylene sulfide in 1:1 blends of compound 1 and excipient; assay type: physicochemical; details: 1:1 weight ratio of compound 1 and excipient, glass vials, gentle rotation 30 minutes, ambient conditions
Experimental: Excipient compatibility of compound 1 with various excipients was determined. Samples of a 1:1 weight ratio of compound 1 and each excipient were blended in glass vials. The vials were subjected to gentle rotation to 30 minutes at ambient conditions. Samples were assayed for ethylene sulfide. Table 3 below presented the results for a selected group of the excipients evaluated: […]

HCV replication = details: in-vitro assays, as described in U.S. Pat. No. 7,951,789; cited from earlier work

In the case of CC(C)(CO)C(=O)SCCOP(=O)(NCc1ccccc1)OC[C@H]1O[C@@H](n2cnc3c(=O)[nH]c(N)nc32)C(C)(O)C1O (stereo partly drawn) [Compound 1, 2′-C-methyl-guanosine, 5′-[2-[(3-hydroxy-2,2-dimethyl-1-oxopropyl)thio]ethyl N-(phenylmethyl)phosphoramidate]], the serious adverse events [1] is given as “No serious adverse events were reported”, the “ppm Ethylene Sulfide Mean of 4 samples” value [2] is given as <9 ppm and the “inhibition of HCV replication (in words)” value (HCV replication) is given as “ability to inhibit HCV replication”.
